According to US4255183A, “Substituted phenyl urea and herbicides for use in paddy field” (Hokko Chemical Industry Co., Ltd., priority 1977, dated 1981):

Assays:
paddy rice [1] = experiment: Test Example 3: field test in transplanted paddy field, paddy rice; assay type: in vivo, paddy rice (Asahi species); settings: Oryza sativa; 300 g/10 are, granule, applied 25 days after transplantation, examined 60 days after transplantation
Method: (§1) In a Wagner pot of 1/500 are, paddy field soil (alluvial soil) was placed and 50 seeds of Echinochloa crus-galli var. oryzicola and 30 seeds of paddy rice were seeded in the surface layer of said soil and the submerging depth was kept at about 1 cm. When Echinochloa crus-galli var. oryzicola reached at the one leaf stage and 5-leaf stage, the emulsion of a predetermined concentration, prepared according to Example 4 was added dropwise. After 30 days from the treatment with the chemical, dry weights of Echinochloa crus-galli var. oryzicola and paddy rice were measured and the inhibition rate was calculated with reference to untreated area. [formula]
In a 10 m^2 paddy field, young seedlings of paddy rice (Asahi species) at the 2,5-leaf stage were transplanted 30 days after the puddling the submerging at the depth of 3-5 cm. 25 Days after the transplantation, when Echinochloa crus-galli var. oryzicola reached 4-leaf stage, a predetermined dose of the granule prepared according to Example 1 was applied. Test results were examined 60 days after the transplantation of paddy rice in the similar manner as in Test Example 1.
Comparative chemicals used were all those commercially available and in the case of the comparative chemical 2, CNP was applied 3 days after the transplantation of paddy rice and after 25 days a mixture of Benthiocarb and Simetryne was applied.

[2] = tested on: Echinochloa crus-galli var. oryzicola; experiment: Test Example 4: field test in submerged directly seeded paddy field, Echinochloa crus-galli var. oryzicola; assay type: in vivo; settings: Echinochloa crus-galli, 504 h; 300 g/10 are, emulsion, 2- to 3-leaf stage, 21 days after application; read-out: Inhibition (%) of E. crus-galli var. oryzicola
Method: as §1
(§2) In a 10 m^2 paddy field, 30 g of Echinochloa crus-galli var. oryzicola seeds were seeded at the time of puddling and the depth of submerging was kept at 3-5 cm. 3 Days after the puddling, 50 g of paddy rice at the emergence stage (Asahi species) were seeded. When Echinochloa crus-galli var. oryzicola and paddy rice reached a 2- to 3-leaf stage, a predetermined dose of the emulsion prepared according to Example 4 was applied uniformly by means of a manual spraying machine. Test results were examined 21 days after the application of the chemicals in the similar manner as in Test Example 1.
(§3) The comparative chemical 1 used was that commercially available and the comparative chemical 2 used was prepared according to Example 4.

paddy rice [3] = experiment: Test Example 4: field test in submerged directly seeded paddy field, paddy rice; assay type: in vivo, paddy rice (Asahi species); settings: Oryza sativa, 504 h; 300 g/10 are, emulsion, 2- to 3-leaf stage, 21 days after application
Method: as §1, §2, §3

Bulrush = experiment: Test Example 5: Wagner pot test, herbicidal effect on Bulrush; assay type: in vivo
Method: In a 1/7500 are Wagner pot, sieved paddy field soil (alluvial soil) was charged. Thereafter, in the center portion of the pot, 2 roots of paddy rice (Asahi species) at the 2- to 3-leaf stage were transplanted and 20 seeds of Bulrush per pot were seeded in the surface of the above soil. The pot was submerged at the depth of about 2 cm. The other Dopatrium junceum and umbrella plant were generated naturally. After seeding, when each of the weeds reached the same leaf age as defined in Table 5 given herein, a predetermined concentration of the emulsion prepared according to Example 4 was applied dropwise on the surface of the pot. The test was carried out by repeating the same test three times per area and the results were determined 20 days after the application of the chemicals with regard to the herbicidal effect and chemical injury on paddy rice on the basis of the evaluation index as shown below.
As the comparative chemicals Molinate, Benthiocarb and DCMU, those commercially available were used.
In the above table, the inhibition rate was calculated according to the method as described in Test Example 1.

[4] = 300 g/10a, leaf age 3, 20 days after application
[5] = 300 g/10a, leaf age 3-5, 20 days after application
[6] = 600 g/10a, leaf age 3, 20 days after application
[7] = 600 g/10a, leaf age 3-5, 20 days after application

| SMILES | inhibition at 3000 g/ha (paddy rice [1]) [%] | inhibition at 3000 g/ha [2] [%] | inhibition at 3000 g/ha (paddy rice [3]) [%] | Weed kill degree, Bulrush (Bulrush; [4]) | Weed kill degree, Bulrush (Bulrush; [5]) | Weed kill degree, Bulrush (Bulrush; [6]) | Weed kill degree, Bulrush (Bulrush; [7]) |
| --- | --- | --- | --- | --- | --- | --- | --- |
| CC=CCOc1ccc(NC(=O)N(C)C)cc1 [Mixture of trans- and cis-forms 1:1] | 0 | 100 | 0 | 5 (100) | 5 (100) | 5 (100) | 5 (100) |
| C/C=C\COc1ccc(NC(=O)N(C)C)cc1 [cis-form, 3-(4-cis-crotyloxyphenyl)-1,1-dimethyl urea] | 0 | 100 | 0 | 5 (100) | 5 (100) | 5 (100) | 5 (100) |
| C/C=C/COc1ccc(NC(=O)N(C)C)cc1 [trans-form, 3-(4-trans-crotyloxyphenyl)-1,1-dimethyl urea] | 0 | 100 | 0 | 5 (100) | 5 (100) | 5 (100) | 5 (100) |
